Experimental findings from US7517872B2, “Compounds for the treatment of hepatitis C” (Bristol-Myers Squibb Company, priority 2007, dated 2009) are described below.

Assay [1] addresses T1, HCV NS5B RdRp genotype 1b (Hepatitis C virus genotype 1b, UniProt Q9WMX2).
T1 construct: The protein was expressed with an 18 amino acid C-terminal truncation to enhance the solubility; made in house; host or cells: E. coli BL21(DE3), pET21a vector
Briefly: Modified HCV NS5B RdRp enzyme assay (preincubation protocol). The class given is biochemical. The protocol: HCV NS5B RdRp cloning, expression, and purification. The cDNA encoding the NS5B protein of HCV, genotype 1b, was cloned into the pET21a expression vector. The protein was expressed with an 18 amino acid C-terminal truncation to enhance the solubility. The E. coli competent cell line BL21(DE3) was used for expression of the protein. Cultures were grown at 37° C. for ˜4 hours until the cultures reached an optical density of 2.0 at 600 nm. The cultures were cooled to 20° C. and induced with 1 mM IPTG. Fresh ampicillin was added to a final concentration of 50 μg/ml and the cells were grown overnight at 20° C.
Cell pellets (3L) were lysed for purification to yield 15-24 mgs of purified NS5B. The lysis buffer consisted of 20 mM Tris-HCl, pH 7.4, 500 mM NaCl, 0.5% triton X-100, 1 mM DTT, 1 mM EDTA, 20% glycerol, 0.5 mg/ml lysozyme, 10 mM MgCl2, 15 ug/ml deoxyribonuclease I, and Complete TM protease inhibitor tablets (Roche). After addition of the lysis buffer, frozen cell pellets were resuspended using a tissue homogenizer. To reduce the viscosity of the sample, aliquots of the lysate were sonicated on ice using a microtip attached to a Branson sonicator. The sonicated lysate was centrifuged at 100,000×g for 1 hr at 4° C. and filtered through a 0.2 μm filter unit (Corning).
The protein was purified using three sequential chromatography steps: Heparin sepharose CL-6B, polyU sepharose 4B, and Hitrap SP sepharose (Pharmacia). The chromatography buffers were identical to the lysis buffer but contained no lysozyme, deoxyribonuclease I, MgCl2 or protease inhibitor and the NaCl concentration of the buffer was adjusted according to the requirements for charging the protein onto the column. Each column was eluted with a NaCl gradient which varied in length from 5-50 column volumes depending on the column type. After the final chromatography step, the resulting purity of the enzyme is >90% based on SDS-PAGE analysis. The enzyme was aliquoted and stored at −80° C.
Standard HCV NS5B RdRp enzyme assay. HCV RdRp genotype 1b assays were run in a final volume of 60 μl in 96 well plates (Costar 3912). The assay buffer is composed of 20 mM Hepes, pH 7.5, 2.5 mM KCl, 2.5 mM MgCl2, 1 mM DTT, 1.6 U RNAse inhibitor (Promega N2515), 0.1 mg/ml BSA (Promega R3961), and 2% glycerol. All compounds were serially diluted (3-fold) in DMSO and diluted further in water such that the final concentration of DMSO in the assay was 2%. HCV RdRp genotype 1b enzyme was used at a final concentration of 28 nM. A polyA template was used at 6 nM, and a biotinylated oligo-dT12 primer was used at 180 nM final concentration. Template was obtained commercially (Amersham 27-4110). Biotinylated primer was prepared by Sigma Genosys. 3H-UTP was used at 0.6 μCi (0.29 μM total UTP). Reactions were initiated by the addition of enzyme, incubated at 30° C. for 60 min, and stopped by adding 25 μl of 50 mM EDTA containing SPA beads (4 μg/μl, Amersham RPNQ 0007). Plates were read on a Packard Top Count NXT after >1 hr incubation at room temperature.
Modified HCV NS5B RdRp enzyme assay. A modified enzyme assay was performed essentially as described for the standard enzyme assay except for the following: The biotinylated oligo dT12 primer was precaptured on streptavidin-coated SPA beads by mixing primer and beads in assay buffer and incubating at room temperature for one hour. Unbound primer was removed after centrifugation. The primer-bound beads were resuspended in 20 mM Hepes buffer, pH 7.5 and used in the assay at final concentrations of 20 nM primer and 0.67 μg/μl beads. Order of addition in the assay: enzyme (14 nM) was added to diluted compound followed by the addition of a mixture of template (0.2 nM), 3H-UTP (0.6 μCi, 0.29 μM), and primer-bound beads, to initiate the reaction; concentrations given are final. Reactions were allowed to proceed for 4 hours at 30° C.
IC50 values for compounds were determined using seven different [I]. […]

In another assay the test system is HCV replicon cells. Briefly: HCV replicon FRET assay. Format: cell-based. The following applies: Hepatitis C virus. The source says:
FRET Assay Preparation. To perform the HCV FRET screening assay, 96-well cell culture plates were used. The FRET peptide (Anaspec, Inc.) (Taliani et al., Anal. Biochem. 1996, 240, 60-67) contains a fluorescence donor, EDANS, near one end of the peptide and an acceptor, DABCYL, near the other end. The fluorescence of the peptide is quenched by […] resonance energy transfer (RET) between the donor and the acceptor, but as the NS3 protease cleaves the peptide the products are released from RET quenching and the fluorescence of the donor becomes apparent. The assay reagent was made as follows: 5× cell Luciferase cell culture lysis reagent from Promega (#E153A) diluted to 1× with dH2O, NaCl added to 150 mM final, the FRET peptide diluted to 20 μM final from a 2 mM stock.
To prepare plates, HCV replicon cells, with or without a Renilla luciferase reporter gene, were trypsinized and placed into each well of a 96-well plate with titrated test compounds added in columns 3 through 12; columns 1 and 2 contained a control compound (HCV protease inhibitor), and the bottom row contained cells without compound. The plates were then placed in a CO2 incubator at 37° C.
Assays. Subsequent to addition of the test compounds described above (FRET Assay Preparation), at various times the plate was removed and Alamar blue solution (Trek Diagnostics, #00-100) was added per well as a measure of cellular toxicity. After reading in a Cytoflour 4000 instrument (PE Biosystems), plates were rinsed with PBS and then used for FRET assay by the addition of 30 ul of the FRET peptide assay reagent described above (FRET Assay Preparation) per well. The plate was then placed into the Cytoflour 4000 instrument which had been set to 340 excite/490 emission, automatic mode for 20 cycles and the plate read in a kinetic mode. Typically, the signal to noise using an endpoint analysis after the reads was at least three-fold. Alternatively, after Alamar blue reading, plates were rinsed with PBS, 50 ul of DMEM (high glucose) without phenol red was added and plates were then used for luciferase assay using the Promega Dual-Glo Luciferase Assay System.
Compound analysis was determined by quantification of the relative HCV replicon inhibition and the relative cytotoxicity values. To calculate cytoxicity values, the average Alamar Blue fluorescence signals from the control wells were set as 100% non-toxic. The individual signals in each of the compound test wells were then divided by the average control signal and multiplied by 100% to determine […]. To calculate the HCV replicon inhibition values, an average background value was obtained from the two wells containing the highest amount of HCV protease inhibitor at the end of the assay period. These numbers were similar to those obtained from naive Huh-7 cells.
The background numbers were then subtracted from the average signal obtained from the control wells and this number was used as 100% activity. The individual signals in each of the compound test wells were then divided by the averaged control values after background subtraction and multiplied by 100% to determine percent activity. EC50 values for a protease inhibitor titration were calculated as the concentration which caused a 50% reduction in FRET or luciferase activity. The two numbers generated for the compound plate, percent cytoxicity and percent activity were used to determine compounds of interest for further analysis.

Where [2] appears, read: HCV NS5B RdRp genotype 1b, preincubation protocol, read-out: IC50.
The mark [3] stands for this setting: HCV replicon cells, FRET assay, read-out: EC50.

Like-named read-outs stand apart in the source and are kept apart here. Some results are limits rather than exact numbers.

T1 sequence (Q9WMX2 2420-2992): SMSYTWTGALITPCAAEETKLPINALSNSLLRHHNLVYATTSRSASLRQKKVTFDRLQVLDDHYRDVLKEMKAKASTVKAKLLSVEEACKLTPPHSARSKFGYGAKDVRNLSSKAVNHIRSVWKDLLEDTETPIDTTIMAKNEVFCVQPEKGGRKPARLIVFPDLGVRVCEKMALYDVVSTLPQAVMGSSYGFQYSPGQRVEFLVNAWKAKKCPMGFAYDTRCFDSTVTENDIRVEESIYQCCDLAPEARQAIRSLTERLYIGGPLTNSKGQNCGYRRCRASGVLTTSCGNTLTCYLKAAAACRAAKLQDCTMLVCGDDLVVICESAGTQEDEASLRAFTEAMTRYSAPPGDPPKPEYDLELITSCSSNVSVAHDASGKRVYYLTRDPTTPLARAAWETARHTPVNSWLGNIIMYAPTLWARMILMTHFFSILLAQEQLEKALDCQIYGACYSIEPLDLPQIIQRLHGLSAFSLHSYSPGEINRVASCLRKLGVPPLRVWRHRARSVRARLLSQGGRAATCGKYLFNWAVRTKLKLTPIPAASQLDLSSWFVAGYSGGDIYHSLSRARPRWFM

For orientation: IC50 means the concentration that inhibits the measured activity by half. Usually EC50 stands for the concentration that produces a half-maximal response. On to `COc1ccc2c(c1)C=C(C(=O)N1C[C@@H](C)O[C@@H](C)C1)Cn1c-2c(C2CCCCC2)c2ccc(C(=O)NS(=O)(=O)N(C)C)nc21`, for which the IC50 in assay [1] (setting [2]) was in the range of 1 to 500 nM. Also, in the assay with HCV replicon cells (setting [3]), the EC50 is above 500 nM.
`COc1ccc2c(c1)[C@@H]1C[C@]1(C(=O)N1[C@@H]3CC[C@H]1CN(C)C3)Cn1c-2c(C2CCCCC2)c2ccc(C(=O)N(C)S(=O)(=O)N(C)C)nc21` came in with an IC50 in assay [1] of 500 to 10000 nM. In the assay with HCV replicon cells, this compound displayed a concentration for a half-maximal effect (EC50) above 100 nM.
Regarding `CNS(=O)(=O)NC(=O)c1ccc2c(C3CCCCC3)c3n(c2n1)CC(C(=O)N1C[C@@H](C)O[C@@H](C)C1)=Cc1cc(OC)ccc1-3`, in assay [1] (setting [2]), the IC50 lay within 1 to 500 nM. For the same compound, the EC50 in the assay on HCV replicon cells (setting [3]) lay within 500 to 10000 nM.
Regarding `COc1ccc2c(c1)[C@@H]1C[C@]1(C(=O)N1[C@@H]3CC[C@H]1CN(C)C3)Cn1c-2c(C2CCCCC2)c2ccc(C(=O)NS(=O)(=O)N(C)C)nc21`, the IC50 in assay [1] lay within 1 to 500 nM. This compound also yielded a 50% effective concentration (EC50) with HCV replicon cells above 100 nM.
Take `COc1ccc2c(c1)C=C(C(=O)N1C[C@@H](C)O[C@@H](C)C1)Cn1c-2c(C2CCCCC2)c2cccnc21`: the IC50 in assay [1] (setting [2]) is 500 to 10000 nM. Moreover, the EC50 in the assay on HCV replicon cells (setting [3]) is above 370 nM.
The matching figures for `COc1ccc2c(c1)C=C(C(=O)N1C[C@@H](C)N(C)[C@@H](C)C1)Cn1c-2c(C2CCCCC2)c2ccc(C(=O)NS(=O)(=O)N(C)C)nc21`: 1 to 500 nM and 1 to 500 nM.
The like results for `COC(=O)C1=Cc2cc(OC)ccc2-c2c(C3CCCCC3)c3ccc(C(=O)NS(=O)(=O)N(C)C)nc3n2C1` were, in that order, 1 to 500 nM and 500 to 10000 nM.
